According to patent US10617654B2, “Use of fenoterol and fenoterol analogues in the treatment of glioblastomas and astrocytomas” (priority 2010, dated 2020):
Several values for one entry are separate records, joined by “and”; a condition that tells them apart may be missing. Equal values may be shown once. Read-outs that look alike come from different tables or passages of the source.

Tests used:
1321N1 cells [1] = test: Cell cycle distribution by flow cytometry in 1321N1 cells; assay type: cell-based, human
Description: Untreated cells were used as controls.

[2] = test system: p27, phospho-Akt, cyclin D1, cyclin A, ERK1/2 in 1321N1 cells; test: Western blot analysis of G1 arrest proteins in 1321N1 cells; assay type: cell-based, human
Description: The ECL Plus Western Blotting Detection System of Amersham Biosciences (Piscataway, N.J.) and the procedure recommended by the manufacturer were used for the detection of antigens. Protein bands were quantified by analyzing the images obtained using an Alphaimager™ S-3400 (Alpha Innotech Corp., San Leandro, Calif.).

[3] = for Individual plasma concentration: individual rat
Experimental: Dose calculations (mg/kg) were based on the individual body weight measured on the day of treatment. Study duration for pharmacokinetic studies was 6 hours. […] Urine was collected for 0-6 hours and 6 to 24 hours from 3 rats in each treatment group.
In the two-compartment model, the drug distributes into two compartments, the central compartment and the tissue, or peripheral compartment. The central compartment represents the blood, extracellular fluid, and highly perfused tissues. The drug distributes rapidly and uniformly in the central compartment. A second compartment, known as the tissue or peripheral compartment, contains tissues in which the drug equilibrates more slowly. Drug transfer between the two compartments is assumed to take place by first-order processes.
The following abbreviations are utilized in Table 4 below: alpha—macro rate constant associated with the distribution phase; beta—macro rate constant associated with the elimination phase; A, B—zero time intercept associated with the alpha phase and beta phase, respectively; AUC—area under the curve; T1/2 (K10)—half-life associated with the rate constant K10; K10—elimination rate—rate at which the drug leaves the system from the central compartment; K12—rate at which drug enters tissue compartment from the central compartment; K21—rate at which drug enters central compartment from tissue compartment; V1—volume of distribution of the central compartment; V2—volume of distribution of the tissue compartment; Vss—volume of distribution at steady state; and Cl—clearance.

β2-AR [4] = molecular target: T1, β2-AR (Homo sapiens (Human), UniProt P07550); assay type: cell-based; details: 1321N1 cells, basal below 0.5 nmol/mg protein
Experimental: HEK-β2-AR, 1321N1 or U87MG cells were plated in 96-well plates. When the cells reached confluence, the medium was removed and each well rinsed with 0.1 mL of Krebs-HEPES buffer (130 mM NaCl, 4.8 mM KCl, 1.2 mM KH2PO4, 1.3 mM CaCl2, 1.2 mM MgSO4, 25 mM HEPES, and 10 mM glucose, pH 7.3). The plates were preincubated for 10 minutes at room temperature with buffer alone; then test compound diluted in buffer was added to the wells for quadruplicate determinations. The plates were incubated for an additional 10 minutes with the test compound. After incubation, the medium was removed and 0.1 mL of 0.5 M formic acid was added. After a minimum of 1 hour, the supernatant was removed and lyophilized. cAMP was quantitated using the protein kinase binding assay of Gilman. The amount of protein per well was determined using the BCA protein determination kit (Thermo Scientific Pierce, Rockford, Ill.) and was used to calculate the amount of cAMP/mg/well.

1321N1 cells [5] = test: Inhibition of mitogenesis, [3H]-thymidine incorporation in 1321N1 cells; assay type: cell-based, human; details: Homo sapiens, 1321-N1, read-out: Mitogenesis Inhibition IC50
rat cardiomyocyte = test: Rat cardiomyocyte contractility model; assay type: cell-based
β2-AR [6] = molecular target: T1, β2-AR; details: previously reported; cited from earlier work
[7] = Brain and plasma analysis of [3H]-(R,R)-methoxyfenoterol after IV administration; assay type: in vivo, male Sprague-Dawley rats; details: rats, IV
Experimental: An overview of the research study design for evaluating the brain-to-plasma distribution of [^3H]
(specific activity 57 Ci/mmol); vehicle was sterile saline, 0.9% sodium chloride, USP. Dose formulations were prepared on the day of the study. The amount of radioactivity in the dose formulation was determined by liquid scintillation. The study lasted for an hour and radioactivity levels in plasma and brain tissue were evaluated at the conclusion of the study. Approximately 5 mls of whole blood was collected. Blood samples were collected via cardiac puncture, transferred into a tube containing K3EDTA as the anticoagulant and kept on wet ice until processed to plasma. To generate plasma, samples were centrifuged within 15 minutes of collection at 2,500 RPM for 15 minutes at room temperature. Plasma was divided equally into three labeled cryovials and stored on ample dry ice until transferred to a freezer set at ≤−20° C. for storage until analysis. Duplicate aliquots were weighed and then combined with scintillation cocktail. The [^3H] radioactivity was determined on a liquid scintillation counter. Brain samples were snap frozen in liquid nitrogen and stored at ≤−70° C. until analysis. Whole brain tissue was homogenized and the weight of the homogenate was determined. Duplicate aliquots from the homogenate were weighed, solubilized and then combined with scintillation cocktail. The [^3H] radioactivity was determined on a liquid scintillation counter.

1321N1 xenograft = 1321N1 xenograft implanted in the flank of SKID mice; assay type: in vivo; details: IP twice a day; day 3-10 30 mg/kg/day, day 10-42 50 mg/kg/day
[8] = rats, 5 mg/kg intravenous, two-compartment open model

T1 sequence (P07550 whole entry): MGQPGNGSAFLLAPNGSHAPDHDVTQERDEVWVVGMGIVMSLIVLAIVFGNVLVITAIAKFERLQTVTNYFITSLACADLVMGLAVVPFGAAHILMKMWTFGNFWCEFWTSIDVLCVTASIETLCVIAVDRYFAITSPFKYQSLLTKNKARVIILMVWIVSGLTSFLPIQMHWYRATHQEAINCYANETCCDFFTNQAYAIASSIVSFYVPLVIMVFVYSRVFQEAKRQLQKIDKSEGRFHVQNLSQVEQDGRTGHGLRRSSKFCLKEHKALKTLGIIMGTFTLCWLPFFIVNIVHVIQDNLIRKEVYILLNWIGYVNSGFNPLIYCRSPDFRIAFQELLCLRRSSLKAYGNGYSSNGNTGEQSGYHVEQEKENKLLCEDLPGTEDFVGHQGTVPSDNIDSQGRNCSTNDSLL

In the case of `C[C@H](Cc1ccc(O)cc1)NC[C@H](O)c1cc(O)cc(O)c1` [(R,R)-1, (R,R)-(−)-Fenoterol], the “lowest dose arresting the cell cycle” value (1321N1 cells [1]) is reported as 0.1 nM, the “phosphorylation of ERK1/2” value [2] is reported as “only a modest effect” and the “protein expression of cyclin A” value [2] is reported as “down-regulated”. For the same compound, the “protein expression of cyclin D1” value [2] was “down-regulated”, the “phosphorylation of Akt at Ser-473” value ([2]; dose dependent, nanomolar concentrations) was “inhibited phosphorylation” and the “protein levels of cyclin-dependent kinase inhibitor p27” value ([2]; nanomolar concentrations) was “significantly increased”. The Individual plasma concentration ([3]; 5 mg/kg IV, 15 min) was 0.36 µg/mL, the Individual plasma concentration ([3]; 5 mg/kg IV, 30 min) was 0.17 µg/mL and 0.50 µg/mL and the Individual plasma concentration ([3]; 5 mg/kg IV, 60 min) was 0.05 µg/mL. The Individual plasma concentration ([3]; 5 mg/kg IV, 120 min) was 0.03 µg/mL and 0.01 µg/mL, the Individual plasma concentration ([3]; 5 mg/kg IV, 300 min) was 0.005 µg/mL and the Individual plasma concentration ([3]; 5 mg/kg IV, 360 min) was 0.08 µg/mL and 0.03 µg/mL. The “Plasma concentration, Average” value ([3]; rats, 5 mg/kg IV, 15 min) was 360 ng/mL, the “Plasma concentration, Average” value ([3]; rats, 5 mg/kg IV, 30 min) was 340 ng/mL and the “Plasma concentration, Average” value ([3]; rats, 5 mg/kg IV, 60 min) was 50 ng/mL. For the same compound, the “Plasma concentration, Average” value ([3]; rats, 5 mg/kg IV, 120 min) was 20 ng/mL, the “Plasma concentration, Average” value ([3]; rats, 5 mg/kg IV, 240 min) was 10 ng/mL and the “Plasma concentration, Average” value ([3]; rats, 5 mg/kg IV, 300 min) was 5 ng/mL. For the same compound, the “Plasma concentration, Average” value ([3]; rats, 5 mg/kg IV, 360 min) was 60 ng/mL, the “A (zero time intercept, alpha phase)” value [3, 8] was 1.6300 µg/mL and the AUC [3, 8] was 29.6861 µg·min/mL. For the same compound, the “B (zero time intercept, beta phase)” value [3, 8] was 0.0577 µg/mL, the Cl [3, 8] was 51.54 mL/min and the “T1/2 (K10)” value [3, 8] was 12.19 min. The Vss [3, 8] was 1911.70 mL.

In the case of `C=C[C@@]1(C)CC(=O)[C@]2(O)[C@@]3(C)[C@@H](O)CCC(C)(C)[C@@H]3[C@H](O)[C@H](OC(C)=O)[C@@]2(C)O1` [forskolin], the “intracellular concentration of cAMP after treatment” value (β2-AR [4]) is reported as ~4 nmol/mg protein.

Compound `CC[C@@H](Cc1ccc(O)cc1)NC[C@H](O)c1cc(O)cc(O)c1` [(R,S)-ethylfenoterol, (R,S)-(−)-ethylfenoterol] has an IC50 (1321N1 cells [5]) of 0.0179 ± 0.00456 µM.

In the case of `C[C@@H](Cc1ccc(O)cc1)NC[C@@H](O)c1cc(O)cc(O)c1` [(S,S)-1, (S,S)-(+)-Fenoterol], the EC50 (rat cardiomyocyte) is reported as 55 µM.

In the case of `NCC(O)c1ccc(O)c2[nH]c(=O)ccc12` (centres unmarked) [Compound 51], the Ki (β2-AR [6]) is given as 6.3 µM and the “Ki β1/Ki β2” value (β2-AR [6]) is given as 1.3.

For `COc1ccc(C[C@@H](C)NC[C@H](O)c2cc(O)cc(O)c2)cc1.O=C(O)/C=C/C(=O)O` [(R,R)-2, (R,R)-(−)-1-p-Methoxyphenyl-2-(β-3′,5′-dihydroxy-phenyl-β-oxy)ethylamino-propane Fumarate], the “passage through the blood brain barrier” value [7] was “capable of passing through the blood brain barrier”, the “growth of 1321N1 xenograft” value (1321N1 xenograft) was “inhibit growth” and the Individual plasma concentration ([3]; 5 mg/kg IV, 300 min, listed as (R,R)-methoxyfenoterol) was 0.06 ug/ml and 0.07 ug/ml (3×) and 0.09 ug/ml. For the same compound, the “systemic exposure (AUC) compared to (R,R)-fenoterol” value ([3]; rats, 5 mg/kg IV) was “significantly higher”, the “Plasma concentration, Average” value ([3]; rats, 5 mg/kg IV, 15 min) was 580 ng/mL and the “Plasma concentration, Average” value ([3]; rats, 5 mg/kg IV, 30 min) was 410 ng/mL. The “Plasma concentration, Average” value ([3]; rats, 5 mg/kg IV, 60 min) was 260 ng/mL, the “Plasma concentration, Average” value ([3]; rats, 5 mg/kg IV, 120 min) was 170 ng/mL and the “Plasma concentration, Average” value ([3]; rats, 5 mg/kg IV, 240 min) was 120 ng/mL. For the same compound, the “Plasma concentration, Average” value ([3]; rats, 5 mg/kg IV, 300 min) was 70 ng/mL, the “Plasma concentration, Average” value ([3]; rats, 5 mg/kg IV, 360 min) was 60 ng/mL and the “A (zero time intercept, alpha phase)” value [3, 8] was 4.6437 µg/mL. The AUC [3, 8] was 96.1011 µg·min/mL and the “B (zero time intercept, beta phase)” value [3, 8] was 0.3900 µg/mL.
